Measured values from ChEMBL document CHEMBL2203203, “Structure-activity relationships of 2-arylamido-5,7-dihydro-4H-thieno[2,3-c]pyran-3-carboxamide derivatives as cannabinoid receptor agonists and their analgesic action” (Bioorg Med Chem Lett, 2012).

Legend:
[1] = species: Homo sapiens; assay: Selectivity ratio of EC50 for human CB1 receptor to EC50 for human CB2 receptor
[2] = molecular target: T1, Cannabinoid receptor 1 (Homo sapiens, UniProt P21554); assay: Agonist activity at human CB1 receptor after 4 hrs by luciferase reporter gene assay; assay type: functional
[3] = molecular target: T1, Cannabinoid receptor 1; assay: Agonist activity at human CB1 receptor after 4 hrs by luciferase reporter gene assay relative to control; assay type: functional
[4] = molecular target: T2, Cannabinoid receptor 2 (Homo sapiens, UniProt P34972); assay: Agonist activity at human CB2 receptor after 4 hrs by luciferase reporter gene assay relative to control; assay type: functional
[5] = molecular target: T2, Cannabinoid receptor 2; assay: Agonist activity at human CB2 receptor after 4 hrs by luciferase reporter gene assay; assay type: functional

T1 sequence (P21554 whole entry): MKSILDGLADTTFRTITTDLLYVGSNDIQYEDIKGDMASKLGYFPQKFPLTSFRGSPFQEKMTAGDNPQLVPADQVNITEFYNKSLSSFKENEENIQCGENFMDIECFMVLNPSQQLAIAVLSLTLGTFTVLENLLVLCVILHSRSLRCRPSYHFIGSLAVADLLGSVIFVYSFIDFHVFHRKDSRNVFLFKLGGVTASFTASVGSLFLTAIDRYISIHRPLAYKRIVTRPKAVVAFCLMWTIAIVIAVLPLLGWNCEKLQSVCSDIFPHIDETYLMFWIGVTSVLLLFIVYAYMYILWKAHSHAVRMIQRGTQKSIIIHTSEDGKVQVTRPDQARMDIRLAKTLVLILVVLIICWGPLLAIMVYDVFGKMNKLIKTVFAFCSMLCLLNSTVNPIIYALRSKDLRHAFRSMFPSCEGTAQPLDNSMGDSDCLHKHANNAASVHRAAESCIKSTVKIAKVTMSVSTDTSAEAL
T2 sequence (P34972 whole entry): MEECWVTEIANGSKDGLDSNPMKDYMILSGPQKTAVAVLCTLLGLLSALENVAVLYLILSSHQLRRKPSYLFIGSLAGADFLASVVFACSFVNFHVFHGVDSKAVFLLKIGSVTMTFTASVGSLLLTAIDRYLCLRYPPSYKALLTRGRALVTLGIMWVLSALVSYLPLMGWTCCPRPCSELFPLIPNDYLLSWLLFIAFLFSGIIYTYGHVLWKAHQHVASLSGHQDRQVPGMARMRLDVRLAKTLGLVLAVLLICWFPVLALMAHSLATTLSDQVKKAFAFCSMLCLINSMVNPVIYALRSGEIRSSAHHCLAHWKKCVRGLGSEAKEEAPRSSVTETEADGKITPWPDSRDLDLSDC

SMILES | Ratio EC50 [1] | EC50 [2] | Efficacy [3] | Efficacy [4] | EC50 [5]
COC1CN(C(=O)c2c(NC(=O)c3ccccc3OC(F)(F)F)sc3c2CCOC3)C1 | 37 | 1420 nM | 45% | 100% | 38 nM
CC(C)(C)C(=O)c1c(NC(=O)c2ccccc2C(F)(F)F)sc2c1CCOC2 | > 11 | > 10000 nM |  | 88% | 897 nM
COCCNC(=O)c1c(NC(=O)c2ccccc2Cl)sc2c1CCC(F)(F)C2 | 21 | 958 nM | 97% | 105% | 46 nM
CC(C)c1ccccc1C(=O)Nc1sc2c(c1C(=O)N1CCOCC1)CCOC2 | 42 | 1500 nM | 105% | 101% | 35 nM
COCCNC(=O)c1c(NC(=O)c2ccccc2OC(F)(F)F)sc2c1CCC(F)(F)C2 | > 145 | > 10000 nM |  | 96% | 63 nM
COCCNC(=O)c1c(NC(=O)CC(C)(C)C)sc2c1CCCC2 | 84 | 1910 nM | 90% | 94% | 23 nM
COCCNC(=O)c1c(NC(=O)CC(C)(C)C)sc2c1CCOC2 | > 20 | > 10000 nM |  | 101% | 489 nM
COCCNC(=O)c1c(NC(=O)CN2CCCCC2)sc2c1CCCC2 | > 65 | > 10000 nM |  | 98% | 152 nM
CC1OCc2sc(NC(=O)CC(C)(C)C)c(C(=O)N3CCCCC3)c21 (stereo not drawn) | 42 | 1660 nM | 88% | 91% | 40 nM
O=C(CN1CCCCC1)Nc1sc2c(c1C(=O)N1CC(F)(F)C1)CCCC2 | > 178 | > 10000 nM |  | 103% | 56 nM
O=C(Nc1sc2c(c1C(=O)N1CCOCC1)CCOC2)c1ccc(Cl)cc1Cl |  | > 10000 nM |  | 108% | 9350 nM
O=C(Nc1sc2c(c1C(=O)N1CC(F)(F)C1)CCC(F)(F)C2)c1ccccc1OC(F)(F)F | 8 | 139 nM | 93% | 99% | 18 nM
O=C(Nc1sc2c(c1C(=O)N1CCC(F)(F)CC1)CCOC2)c1c(F)cccc1C(F)(F)F | 71 | 251 nM | 94% | 97% | 3.6 nM
O=C(Nc1sc2c(c1C(=O)N1CCC(F)(F)CC1)CCOC2)c1ccccc1OC(F)(F)F | 38 | 125 nM | 79% | 96% | 3.3 nM
O=C(Nc1sc2c(c1C(=O)N1CCOCC1)CCOC2)c1ccccc1Cl | 14 | 3270 nM | 85% | 112% | 227 nM
CC(C)(C)CC(=O)Nc1sc2c(c1C(=O)N1CCC(F)(F)CC1)C(C)(C)CC2 | > 77 | > 10000 nM |  | 96% | 129 nM
O=C(Nc1sc2c(c1C(=O)N1CCCCC1)CCOC2)c1c(F)cccc1C(F)(F)F | 71 | 1000 nM | 94% | 103% | 14 nM
COCCNC(=O)c1c(NC(=O)c2ccccc2OC(F)(F)F)sc2c1CCOC2 | > 104 | > 10000 nM |  | 100% | 96 nM
O=C(Nc1sc2c(c1C(=O)N1CC(F)(F)C1)CCC(F)(F)C2)c1ccccc1Cl | 2 | 81 nM | 95% | 98% | 49 nM
COCC(C)(C)NC(=O)c1c(NC(=O)c2c(F)cccc2C(F)(F)F)sc2c1CCOC2 | > 135 | > 10000 nM |  | 94% | 74 nM
O=C(Nc1sc2c(c1C(=O)N1CCOCC1)CCOC2)c1cccc(Cl)c1 |  | > 10000 nM |  | 98% | 1420 nM
O=C(Nc1sc2c(c1C(=O)N1CCOCC1)CCOC2)c1ccccc1OC(F)F | > 20 | > 10000 nM |  | 96% | 488 nM

SMILES | Ratio EC50 [1] | EC50 [2] | Efficacy [3] | Efficacy [4] | EC50 [5]
O=C(Nc1sc2c(c1C(=O)N1CCOCC1)CCOC2)c1ccccc1C(F)(F)F | 50 | 1750 nM | 84% | 102% | 35 nM
COCC(C)(C)NC(=O)c1c(NC(=O)c2ccccc2OC(F)(F)F)sc2c1CCOC2 | > 100 | > 10000 nM |  | 81% | 101 nM
O=C(Nc1sc2c(c1C(=O)N1CCOCC1)CCOC2)c1ccc(Cl)cc1 |  | > 10000 nM |  |  | > 10000 nM
O=C(Nc1sc2c(c1C(=O)N1CCOCC1)CCOC2)c1ccccc1-c1ccccc1 |  | > 10000 nM |  | 63% | 7890 nM
COC1CN(C(=O)c2c(NC(=O)CC(C)(C)C)sc3c2CCCC3)C1 | 85 | 3970 nM | 63% | 110% | 47 nM
COCCNC(=O)c1c(NC(=O)C2CCCC2)sc2c1CCOC2 | > 32 | > 10000 nM |  | 84% | 313 nM
COCCNC(=O)c1c(NC(=O)C2CCCN2C(=O)C2CC2)sc2c1CCCC2 (stereo not drawn) | > 29 | > 10000 nM |  | 88% | 344 nM
COc1ccccc1C(=O)Nc1sc2c(c1C(=O)N1CCOCC1)CCOC2 |  | > 10000 nM |  |  | > 10000 nM
COCCNC(=O)c1c(NC(=O)C2CCC2)sc2c1CCCC2 | > 49 | > 10000 nM |  | 101% | 201 nM
O=C(CN1CCCC1)Nc1sc2c(c1C(=O)N1CC(F)(F)C1)CCCC2 | > 25 | > 10000 nM |  | 89% | 394 nM
O=C(Nc1sc2c(c1C(=O)N1CCOCC1)CCOC2)c1c(F)cccc1C(F)(F)F | 48 | 4540 nM | 56% | 100% | 95 nM
O=C(CN1CCCC1)Nc1sc2c(c1C(=O)N1CCC(F)(F)CC1)CCCC2 | > 48 | > 10000 nM |  | 87% | 209 nM
CC(C)(C)CC(=O)Nc1sc2c(c1C(=O)N1CC(F)(F)C1)CCCC2 | 63 | 336 nM | 91% | 99% | 5.4 nM
COC1CN(C(=O)c2c(NC(=O)CN3CCCCC3)sc3c2CCCC3)C1 | > 45 | > 10000 nM |  | 92% | 219 nM
O=C(Nc1sc2c(c1C(=O)NCC1CC1)CCC2)c1ccccc1Cl | > 94 | > 10000 nM |  | 76% | 106 nM
O=C(Nc1sc2c(c1C(=O)N1CCOCC1)CCOC2)c1ccccc1OC(F)(F)F | > 90 | > 10000 nM |  | 106% | 103 nM
COCCNC(=O)c1c(NC(=O)c2ccccc2Cl)sc2c1CCC2 | > 72 | > 10000 nM |  | 52% | 137 nM
O=C(Nc1sc2c(c1C(=O)O)CCOC2)c1ccccc1Cl |  | > 10000 nM |  |  | > 10000 nM
O=C(Nc1sc2c(c1C(=O)N1CCOCC1)CCOC2)c1cccc(OC(F)(F)F)c1 | > 10 | > 10000 nM |  | 77% | 749 nM
CC(C)(C)C(=O)c1c(NC(=O)c2ccccc2OC(F)(F)F)sc2c1CCOC2 | > 11 | > 10000 nM |  | 102% | 939 nM
COCC(C)(C)NC(=O)c1c(NC(=O)c2ccccc2C(F)(F)F)sc2c1CCOC2 | > 243 | > 10000 nM |  | 93% | 41 nM
